Data as given in patent US20250230138A1, “COMPOUNDS HAVING A T-STRUCTURE FORMED BY AT LEAST FOUR CYCLES FOR USE IN THE TREATMENT OF CANCER AND OTHER INDICATIONS” (TheRas, Inc., priority 2022, published 2025).
Read-outs that look alike come from different tables or passages of the source.

How the values were obtained:
[1] = target: Cys242 in human PIK3CA (157-299) (Homo sapiens (Human), UniProt P42336); assay: Covalent modification assay using MALDI-TOF MS; format: biochemical; conditions: 4 h reaction time point; 3.33 μM protein target, 1:7.5 protein to compound ratio (compounds 1-852)
How it was run: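 PIK3CA (157-299) at 3.33 μM or 1 μM in 20 mM HEPES, 150 mM NaCl, 2 mM MgCl2, pH 7.3 was incubated with compound (from 10 mM DMSO stocks) in the dark at room temperature for 15 min, 30 min, 2 h or 4 h. Linear-mode MALDI-TOF peak heights gave percent modification.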

pAKT in BT474 cells = assay: Cell-based pAKT HTRF assay in BT474 cells; conditions: BT474 cells, 4 hr incubation, Compounds 10-999, read-out: pAKT inhibition IC50 in BT474 cells
How it was run: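 Cells grown in DMEM with 10% FBS were exposed to compounds for 4 hr in 0.25% DMSO, using a 9-point, 3-fold dilution series that starts at 3 μM. Lysates were incubated with d2 and Eu Cryptate antibodies for 4–24 h at room temperature, and HTRF was read at 615 nm emission.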

Sequence of Cys242 in human PIK3CA (157-299) (P42336 157-299): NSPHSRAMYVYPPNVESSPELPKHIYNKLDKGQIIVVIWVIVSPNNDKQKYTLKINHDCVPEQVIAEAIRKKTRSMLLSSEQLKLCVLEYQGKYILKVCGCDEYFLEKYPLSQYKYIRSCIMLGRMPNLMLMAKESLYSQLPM

Row | SMILES | IC50 (pAKT in BT474 cells; Homo sapiens, BT-474) | IC50 (pAKT in BT474 cells) | % of modification [1]
1 | C=CC(=O)N1CCc2nc(-c3nc(-c4ccc5c(c4)CCNC5)c4ccsc4c3-c3c(F)cc(F)cc3OCCO)sc2C1 [Compound 415] | – | 0.1 to 1 µM | A (percent of modification of PIK3CA protein ≥75%)
2 | C=CC(=O)N1CCc2nc(-c3nc(-c4ccc5c(c4)C(O)CC5)c4ccsc4c3-c3c(F)cc(F)cc3OCCOC)sc2C1 (stereo not shown) [Compound 416] | – | < 0.1 µM | A (percent of modification of PIK3CA protein ≥75%)
3 | C=CC(=O)N1CCc2nc(-c3nc(-c4ccc5c(c4)CCNC5)c4ccoc4c3-c3ccc(F)cc3OCCOC)sc2C1 [Compound 417] | – | < 0.1 µM | A (percent of modification of PIK3CA protein ≥75%)
4 | C=CC(=O)N1CCc2nc(-c3nc(-c4ccc5c(c4)CCN(C)C5)c4ccsc4c3-c3c(F)cc(F)cc3OCCO)sc2C1 [Compound 418] | – | < 0.1 µM | A (percent of modification of PIK3CA protein ≥75%)
5 | C=CC(=O)N1CCc2nc(-c3nc(-c4ccc(C(C)(C)O)cc4)c4ccsc4c3-c3c(F)cc(F)cc3OCCOC)sc2C1 [Compound 419] | – | 0.1 to 1 µM | A (percent of modification of PIK3CA protein ≥75%)
6 | C=CC(=O)N1CCc2ncc(-c3nc(-c4cn(C)cn4)c4ccsc4c3-c3c(F)cc(F)cc3OC(C)C)cc2C1 [Compound 421] | – | < 0.1 µM | A (percent of modification of PIK3CA protein ≥75%)
7 | C=CC(=O)N1CCc2nc(-c3nc(-c4ccc(C5(N)COC5)cc4)c4ccsc4c3-c3c(F)cc(F)cc3OCCOC)sc2C1 [Compound 426] | – | < 0.1 µM | A (percent of modification of PIK3CA protein ≥75%)
8 | C=CC(=O)N1CCc2nc(-c3nc(-c4ccc5nn(C)cc5c4)c4ccsc4c3-c3c(F)cc(F)cc3OCCOC)sc2C1 [Compound 427] | – | < 0.1 µM | A (percent of modification of PIK3CA protein ≥75%)
9 | C=CC(=O)N1CCc2nc(-c3nc(-c4ccc5oc(C)nc5c4)c4ccsc4c3-c3c(F)cc(F)cc3OCCOC)sc2C1 [Compound 428] | – | < 0.1 µM | A (percent of modification of PIK3CA protein ≥75%)
10 | C=CC(=O)N1CCc2nc(-c3nc(-c4ccc5c(c4)CCNC5)c4c(F)csc4c3-c3c(F)cc(F)cc3OCCOC)sc2C1 [Compound 434, 1-[2-[7-[2,4-difluoro-6-(2-methoxyethoxy)phenyl]-3-fluoro-4-(1,2,3,4-tetrahydroisoquinolin-6-yl)thieno[3,2-c]pyridin-6-yl]-6,7-dihydro-4H-thiazolo[5,4-c]pyridin-5-yl]prop-2-en-1-one] | 0.1 to 1 µM | – | A (percent of modification of PIK3CA protein ≥75%)
11 | C=CC(=O)N1CCc2nc(-c3nc(-c4ccc(C5(N)CCC5)cc4)c4ccsc4c3-c3c(F)cc(F)cc3OCCOC)sc2C1 [Compound 436] | – | 0.1 to 1 µM | A (percent of modification of PIK3CA protein ≥75%)
12 | C=CC(=O)N1CCc2nc(-c3nc(-c4cccc(C(C)(C)C#N)c4)c4ccsc4c3-c3c(F)cc(F)cc3OCCOC)sc2C1 [Compound 440] | – | 0.1 to 1 µM | D (percent of modification <25%)
13 | C=CC(=O)N1CCc2nc(-c3nc(-c4ccc(C(C)(C)N)cc4)c4ccsc4c3-c3c(F)cc(F)cc3OCCOC)sc2C1 [Compound 443] | – | 0.1 to 1 µM | A (percent of modification of PIK3CA protein ≥75%)
14 | C=CC(=O)N1CCc2nc(-c3nc(-c4ccc(C(C)(C)O)nc4)c4ccsc4c3-c3c(F)cc(F)cc3OCCOC)sc2C1 [Compound 445] | – | 0.1 to 1 µM | A (percent of modification of PIK3CA protein ≥75%)
15 | C=CC(=O)N1CCc2ncc(-c3nc(-c4cnc(C)o4)c4ccsc4c3-c3c(F)cc(F)cc3OC(C)C)cc2C1 [Compound 455] | – | < 0.1 µM | A (percent of modification of PIK3CA protein ≥75%)
16 | C=CC(=O)N1Cc2cc(-c3nc(-c4cnn(C)c4)c4ccsc4c3-c3c(F)cc(F)cc3OC(C)C)nn2C[C@H]1C [Compound 457, 1-((R)-2-((S)-7-(2,4-difluoro-6-isopropoxyphenyl)-4-(1-methyl-1H-pyrazol-4-yl)thieno[3,2-c]pyridin-6-yl)-6-methyl-6,7-dihydropyrazolo[1,5-a]pyrazin-5(4H)-yl)prop-2-en-1-one] | – | < 0.1 µM | A (percent of modification of PIK3CA protein ≥75%)
17 | C=CC(=O)N1CCc2nc(-c3nc(-c4cnn(C)c4)c4ccsc4c3-c3c(F)cc(Cl)cc3OCCOC)sc2C1 [Compound 464] | – | 0.1 to 1 µM | A (percent of modification of PIK3CA protein ≥75%)
18 | C=CC(=O)N1Cc2cc(-c3nc(-c4cnn(C)c4)c4ccsc4c3-c3c(F)cc(F)cc3OCCOC)nn2CC1C (stereo not shown) [Compound 469] | – | < 0.1 µM | A (percent of modification of PIK3CA protein ≥75%)
19 | C=C(F)C(=O)N1CCn2nc(-c3nc(-c4ccc5c(c4)CNC5=O)c4ccsc4c3-c3c(Cl)cccc3OC(C)C)cc2C1 [Compound 472] | – | 0.1 to 1 µM | B (50%<percent of modification <75%)
20 | C=C(F)C(=O)N1Cc2cc(-c3nc(-c4ccc5c(c4)CCN(C)C5)c4ccsc4c3-c3c(F)cc(F)cc3OC(C)C)nn2CC1C (stereo not shown) [Compound 473] | – | 0.1 to 1 µM | D (percent of modification <25%)
21 | C=CC(=O)N1Cc2cc(-c3nc(-c4ccc5c(c4)CN(C)C5=O)c4ccsc4c3-c3c(F)cc(F)cc3OCCOC)nn2CC1C (stereo not shown) [Compound 474] | – | < 0.1 µM | A (percent of modification of PIK3CA protein ≥75%)

Continued, in another order:

Row | IC50 (pAKT in BT474 cells; Homo sapiens, BT-474) | IC50 (pAKT in BT474 cells) | SMILES | % of modification [1]
22 | < 0.1 µM | – | C=CC(=O)N1CCc2ccc(-c3nc(-c4ccc5c(c4)CNC5=O)c4ccsc4c3-c3c(F)cc(F)cc3OC(C)C)nc2C1 [Compound 411, 5-[7-(2,4-difluoro-6-isopropoxy-phenyl)-6-(7-prop-2-enoyl-6,8-dihydro-5H-1,7-naphthyridin-2-yl)thieno[3,2-c]pyridin-4-yl]isoindolin-1-one] | A (percent of modification of PIK3CA protein ≥75%)
23 | – | < 0.1 µM | C=CC(=O)N1CCc2ncc(-c3nc(-c4cnc(C)n4C)c4ccsc4c3-c3c(F)cc(F)cc3OC(C)C)cc2C1 [Compound 412] | A (percent of modification of PIK3CA protein ≥75%)
24 | – | 0.1 to 1 µM | C=CC(=O)N1CCc2ncc(-c3nc(N4CCC5(CC4)COC5)c4ccsc4c3-c3c(F)cc(F)cc3OC(C)C)cc2C1 [Compound 423] | A (percent of modification of PIK3CA protein ≥75%)
25 | – | < 0.1 µM | C=CC(=O)N1CCc2ncc(-c3nc(-c4ccc5c(c4)CCN(C)C5)c4ccsc4c3-c3c(F)cc(F)cc3OC)cc2C1 [Compound 425] | A (percent of modification of PIK3CA protein ≥75%)
26 | – | 0.1 to 1 µM | C=CC(=O)N1CCc2nc(-c3nc(-c4cccc(C(C)(C)O)c4)c4ccsc4c3-c3c(F)cc(F)cc3OCCOC)sc2C1 [Compound 429] | A (percent of modification of PIK3CA protein ≥75%)
27 | – | 0.1 to 1 µM | C=CC(=O)N1CCc2nc(-c3nc(-c4ccc5c(c4)CCNC5)c4ccsc4c3-c3c(F)cc(F)cc3OCC)sc2C1 [Compound 430] | A (percent of modification of PIK3CA protein ≥75%)
28 | – | 0.1 to 1 µM | C=CC(=O)N1CCc2nc(-c3nc(-c4cnc(C)s4)c4ccsc4c3-c3c(F)cc(F)cc3OCCOC)sc2C1 [Compound 431] | A (percent of modification of PIK3CA protein ≥75%)
29 | – | 0.1 to 1 µM | C=CC(=O)N1CCc2nc(-c3nc(-c4ccc5c(c4)CCN(C)C5)c4ccsc4c3-c3c(F)cc(F)cc3OCC)sc2C1 [Compound 438] | A (percent of modification of PIK3CA protein ≥75%)
30 | – | 0.1 to 1 µM | C=CC(=O)N1CCc2nc(-c3nc(-c4ccc(C(C)(C)C#N)cc4)c4ccsc4c3-c3c(F)cc(F)cc3OCCOC)sc2C1 [Compound 439] | D (percent of modification <25%)
31 | – | < 0.1 µM | C=CC(=O)N1CCc2nc(-c3nc(-c4cnc5c(c4)CNC(=O)C5)c4ccsc4c3-c3c(F)cc(F)cc3OCCOC)sc2C1 [Compound 446] | A (percent of modification of PIK3CA protein ≥75%)
32 | < 0.1 µM | – | C=CC(=O)N1CCc2cnc(-c3nc(-c4ccc5c(c4)CNC5=O)c4ccsc4c3-c3c(F)cc(F)cc3OC(C)C)cc2C1 [Compound 453, 5-[7-(2,4-difluoro-6-isopropoxy-phenyl)-6-(6-prop-2-enoyl-7,8-dihydro-5H-2,6-naphthyridin-3-yl)thieno[3,2-c]pyridin-4-yl]isoindolin-1-one] | A (percent of modification of PIK3CA protein ≥75%)
33 | – | > 3 µM | C=CC(=O)N1Cc2cc(-c3nc(-c4cnn(C)c4)c4ccsc4c3-c3c(F)cc(F)cc3OC(C)C)nn2C[C@H]1C [Compound 456, 1-((R)-2-((R)-7-(2,4-difluoro-6-isopropoxyphenyl)-4-(1-methyl-1H-pyrazol-4-yl)thieno[3,2-c]pyridin-6-yl)-6-methyl-6,7-dihydropyrazolo[1,5-a]pyrazin-5(4H)-yl)prop-2-en-1-one] | D (percent of modification <25%)
34 | – | 0.1 to 1 µM | C=CC(=O)N1CCc2nc(-c3nc(-c4ccc5c(c4)CCNC5)c4ccsc4c3-c3c(F)cc(Cl)cc3OCCOC)sc2C1 [Compound 465] | A (percent of modification of PIK3CA protein ≥75%)
35 | – | 0.1 to 1 µM | C=CC(=O)N1CCc2nc(-c3nc(-c4ccc5c(c4)CCN(C)C5)c4ccsc4c3-c3c(F)cc(F)cc3OCC(F)F)sc2C1 [Compound 470] | A (percent of modification of PIK3CA protein ≥75%)
